Experimental findings from US20090042726A1, “Novel Herbicides” (SYNGENTA LIMITED, priority 2005, published 2009) are described below.

The assay concerns Monocotyledonous and dicotyledonous test plants. Nature of the assay: Herbicidal action, application pre-emergence (Example B1). It is filed as in vivo. On the set-up: key: 10=total damage to plant; 0=no damage to plant. Particulars: 1000 g/ha, evaluated after 9 or 13 days; for AGSTE herbicidal action (damage score 0-10): Agrostis-tenius; for AMARE herbicidal action (damage score 0-10): Amaranthus retroflexus; for DIGSA herbicidal action (damage score 0-10): Digitaria sanguinalis; for POATR herbicidal action (damage score 0-10): Poa trivialis; for SETIT herbicidal action (damage score 0-10): Setaria italica. The method, then: Monocotyledonous and dicotyledonous test plants were sown in sterilised standard soil in seed trays each having 96 cells. After one day (pre-emergence) under controlled conditions in a climatic chamber (cultivation at 23/17° C., day/night; 13 hours light; 50-60% humidity; after application at 24/19° C., day/night), the plants were treated with an aqueous spray solution of 1000 mg/l of the active ingredient used (including 10% DMSO as solvent). The plants were grown on in the climatic chamber until the test was evaluated (10=total damage to plant, 0=no damage to plant) after 9 or 13 days.

SMILES strings stand for the structures.

For `Cn1nc(C(F)(F)F)c(CS(=O)(=O)C2=NOC(C)(C)C2F)c1OCC(F)(F)F` (centres unmarked) [2.11], the “AGSTE herbicidal action (damage score 0-10)” value (from here on “AGSTE herbicidal action”) worked out at 10, the “AMARE herbicidal action (damage score 0-10)” value (“AMARE herbicidal action” for short) stood at 10, the “DIGSA herbicidal action (damage score 0-10)” value (“DIGSA herbicidal action” for short) was determined as 9 and the “POATR herbicidal action (damage score 0-10)” value (“POATR herbicidal action” for short) came to 10. For the same compound, the “SETIT herbicidal action (damage score 0-10)” value (“SETIT herbicidal action” for short) was 4.
With `Cn1cc(C(F)(F)F)c(CSC2=NOC(C)(C)C2F)n1` (centres unmarked) [4.01, 3-(4-fluoro-5,5-dimethyl-4,5-dihydro-isoxazol-3-ylsulfanyl-methyl)-1-methyl-4-trifluoromethyl-1H-pyrazole], the “AGSTE herbicidal action” value is on record as 0, the “AMARE herbicidal action” value was determined as 8, the “DIGSA herbicidal action” value is given as 9 and the “POATR herbicidal action” value turned out to be 0. Moreover, the “SETIT herbicidal action” value is 9.
Turning to `CC1(C)ON=C(SCc2cccnc2Cl)C1F` (centres unmarked) [Compound No. 3.04], the “AGSTE herbicidal action” value was determined as 8, the “AMARE herbicidal action” value was 2, the “DIGSA herbicidal action” value was 8 and the “POATR herbicidal action” value is listed as 7.
For `Cc1nn(C)nc1CS(=O)(=O)C1=NOC(C)(C)C1F` (centres unmarked) [7.04], the “AGSTE herbicidal action” value is 10, the “AMARE herbicidal action” value is 10, the “DIGSA herbicidal action” value is 10 and the “POATR herbicidal action” value was found to be 10. Besides, the “SETIT herbicidal action” value was 9.
Turning to `Cn1nc(C[S+]([O-])C2=NOC(C)(C)C2F)c(C(F)(F)F)c1C#N` (single isomer, unassigned) [4.07], the “AGSTE herbicidal action” value came to 10, the “AMARE herbicidal action” value turned out to be 9, the “DIGSA herbicidal action” value is 9 and the “POATR herbicidal action” value was found to be 10.
As for `Cn1nc(C(F)(F)F)cc1CS(=O)(=O)C1=NOC(C)(C)C1F` (centres unmarked) [6.04], the “AGSTE herbicidal action” value was determined as 10, the “AMARE herbicidal action” value worked out at 9, the “DIGSA herbicidal action” value worked out at 9 and the “POATR herbicidal action” value came to 10.
In the case of `Cc1nn(C)c(OCC(F)(F)F)c1CS(=O)(=O)C1=NOC(C)(C)C1F` (centres unmarked) [2.63], the “AGSTE herbicidal action” value was 10, the “AMARE herbicidal action” value is 10, the “DIGSA herbicidal action” value came out at 8 and the “POATR herbicidal action” value is recorded as 10.
As for `Cn1nc(OCC(F)(F)F)c(CS(=O)(=O)C2=NOC(C)(C)C2F)c1C(F)(F)F` (centres unmarked) [2.44], the “AGSTE herbicidal action” value amounted to 0, the “AMARE herbicidal action” value was determined as 10, the “DIGSA herbicidal action” value is given as 7 and the “POATR herbicidal action” value is reported as 10. Also, the “SETIT herbicidal action” value is 10.
In the case of `Cc1nc(C(F)(F)F)ccc1C[S+]([O-])C1=NOC(C)(C)C1F` (mixture of isomers) [3.02], the “AGSTE herbicidal action” value came out at 10, the “AMARE herbicidal action” value stood at 7, the “DIGSA herbicidal action” value amounted to 9 and the “POATR herbicidal action” value came out at 10. In addition, the “SETIT herbicidal action” value was 8.
With `Cn1nnc(Br)c1C[S+]([O-])C1=NOC(C)(C)C1F` (mixture of isomers) [11.02], the “AGSTE herbicidal action” value was 10, the “AMARE herbicidal action” value worked out at 5, the “DIGSA herbicidal action” value came to 9 and the “POATR herbicidal action” value is on record as 10.
Take `Cn1nc(C(F)(F)F)cc1C[S+]([O-])C1=NOC(C)(C)C1F` (mixture of isomers) [6.03]: the “AGSTE herbicidal action” value came out at 10, the “AMARE herbicidal action” value was 8, the “DIGSA herbicidal action” value is 9 and the “POATR herbicidal action” value came to 10.
Consider `CCn1ncc(CS(=O)(=O)C2=NOC(C)(C)C2F)n1` (centres unmarked) [7.36], for which the “AGSTE herbicidal action” value turned out to be 9, the “AMARE herbicidal action” value is on record as 8, the “DIGSA herbicidal action” value worked out at 9 and the “POATR herbicidal action” value is reported as 10.
With `CC1(C)ON=C(S(=O)(=O)C(Cl)c2ccccc2OC(F)(F)F)C1F` (centres unmarked) [Compound No. 1.13, 3-[chloro-(2-trifluoromethoxy-phenyl)-methanesulfonyl]-4-fluoro-5,5-dimethyl-4,5-dihydro-isoxazole], the “AGSTE herbicidal action” value is given as 10, the “AMARE herbicidal action” value was determined as 9, the “DIGSA herbicidal action” value was 9 and the “POATR herbicidal action” value was 10. Further, the “SETIT herbicidal action” value worked out at 9.
For `Cn1nc(OC(F)F)cc1CSC1=NOC(C)(C)C1F` (centres unmarked) [Compound No. 6.08], the “AGSTE herbicidal action” value is reported as 9, the “AMARE herbicidal action” value came out at 3, the “DIGSA herbicidal action” value was 8 and the “POATR herbicidal action” value is 9.
Regarding `COCCOc1c(C[S+]([O-])C2=NOC(C)(C)C2F)c(C(F)(F)F)nn1C` (mixture of isomers) [2.58], the “AGSTE herbicidal action” value is recorded as 10, the “AMARE herbicidal action” value was 10, the “DIGSA herbicidal action” value amounted to 10 and the “POATR herbicidal action” value came out at 10.
With `Cc1nn(C)nc1C[S+]([O-])C1=NOC(C)(C)C1F` (single isomer, unassigned) [7.03], the “AGSTE herbicidal action” value is 8, the “AMARE herbicidal action” value worked out at 6, the “DIGSA herbicidal action” value amounted to 10 and the “POATR herbicidal action” value stood at 10. Besides, the “SETIT herbicidal action” value was 9.
On to `Cn1ncc(CS(=O)(=O)C2=NOC(C)(C)C2F)n1` (centres unmarked) [7.23], for which the “AGSTE herbicidal action” value worked out at 10, the “AMARE herbicidal action” value turned out to be 5, the “DIGSA herbicidal action” value is listed as 9 and the “POATR herbicidal action” value is recorded as 9.
As for `Cc1nc(C[S+]([O-])C2=NOC(C)(C)C2F)n(C)n1` (single isomer, unassigned) [8.03], the “AGSTE herbicidal action” value amounted to 10, the “AMARE herbicidal action” value was 0, the “DIGSA herbicidal action” value was determined as 9 and the “POATR herbicidal action” value is given as 8.
In the case of `CC1(C)ON=C([S+]([O-])Cc2nn(C3CCCC3)nc2C(F)(F)F)C1F` (mixture of isomers) [7.13], the “AGSTE herbicidal action” value is given as 10, the “AMARE herbicidal action” value came out at 4, the “DIGSA herbicidal action” value worked out at 9 and the “POATR herbicidal action” value amounted to 8.
For the compound `CC(c1c(C(F)(F)F)nn(C)c1OC(F)F)S(=O)(=O)C1=NOC(C)(C)C1F` (mixture of isomers) [Compound No. 2.27], the “AGSTE herbicidal action” value was determined as 10, the “AMARE herbicidal action” value was 10, the “DIGSA herbicidal action” value is listed as 10 and the “POATR herbicidal action” value turned out to be 10. For the same compound, the “SETIT herbicidal action” value was found to be 10.
As for `CC1(C)ON=C([S+]([O-])Cc2nn(C3CCCC3)nc2C(F)(F)F)C1F` (single isomer, unassigned) [7.12], the “AGSTE herbicidal action” value is on record as 10, the “AMARE herbicidal action” value worked out at 10, the “DIGSA herbicidal action” value worked out at 9 and the “POATR herbicidal action” value came out at 10.
For the compound `Cn1nc(OC(F)F)c(C[S+]([O-])C2=NOC(C)(C)C2F)c1C(F)(F)F` (single isomer, unassigned) [2.29], the “AGSTE herbicidal action” value was determined as 9, the “AMARE herbicidal action” value is 8, the “DIGSA herbicidal action” value was found to be 0 and the “POATR herbicidal action” value was found to be 10. In addition, the “SETIT herbicidal action” value was 9.
On to `Cn1nc(C(F)(F)F)c(CS(=O)(=O)C2=NOC(C)(C)C2Br)c1OC(F)F` (centres unmarked) [Compound No. 2.06, 4-Bromo-3-(5-difluoromethoxy-1-methyl-3-trifluoromethyl-1H-pyrazol-4-ylmethylsulfonyl)-5,5-dimethyl-4,5-dihydro-isoxazole], for which the “AGSTE herbicidal action” value amounted to 10, the “AMARE herbicidal action” value is given as 7, the “DIGSA herbicidal action” value was determined as 8 and the “POATR herbicidal action” value worked out at 9. Further, the “SETIT herbicidal action” value came out at 7.
`Cn1nc(C(F)(F)F)c(C[S+]([O-])C2=NOC(C)(C)C2F)c1OCC(F)(F)F` (single isomer, unassigned) [2.09]: the “AGSTE herbicidal action” value stood at 10, the “AMARE herbicidal action” value worked out at 9, the “DIGSA herbicidal action” value came to 9 and the “POATR herbicidal action” value came to 10. Moreover, the “SETIT herbicidal action” value was 10.
Take `CCc1nn(C)nc1CS(=O)(=O)C1=NOC(C)(C)C1F` (centres unmarked) [7.33]: the “AGSTE herbicidal action” value was determined as 10, the “AMARE herbicidal action” value was 10, the “DIGSA herbicidal action” value is given as 10 and the “POATR herbicidal action” value came to 10.
As to `Cn1nc(C(F)(F)F)c(CS(=O)(=O)C2=NOC(C)(C)C2Cl)c1OC(F)F` (centres unmarked) [2.18], the “AGSTE herbicidal action” value worked out at 10, the “AMARE herbicidal action” value stood at 8, the “DIGSA herbicidal action” value turned out to be 5 and the “POATR herbicidal action” value amounted to 9. Also, the “SETIT herbicidal action” value came out at 8.
